Source: ChEMBL document CHEMBL5036357, “2,3-Difunctionalized Benzo[b]thiophene Scaffolds Possessing Potent Antiangiogenic Properties” (J Med Chem, 2022)
One block for each molecule: values may come before it. Activity calls are given as the source filed them. The calls are words filed in the database; no cut-off is given here.

Assays:
[1] = system: HUVEC; experiment: Anti-angiogenesis activity against HUVEC cells assessed as tubule formation at 10 uM incubated for 6 hrs by inverted fluorescence microscopic analysis relative to control; type: functional, Homo sapiens
[2] = system: HUVEC; experiment: Anti-angiogenesis activity against HUVEC cells assessed as tubule formation at 250 nM incubated for 6 hrs by inverted fluorescence microscopic analysis relative to control; type: functional, Homo sapiens
[3] = species on record: Mus musculus; experiment: Antiangiogenic activity in BALB/c mouse assessed as assessed as reduction in CD31-positive microvessel density in ear tissue at 2 uM measured after 6 days by fluorescence microscopic analysis; type: functional, organism-based; details: time 6.0 day
[4] = system: HUVEC; experiment: Anti-angiogenesis activity against HUVEC cells assessed as reduction in tubule formation at 50 nM incubated for 6 hrs by inverted fluorescence microscopic analysis relative to control; type: functional, Homo sapiens; set-up: scale not given: the % may be the effect or the level left
[5] = species on record: Mus musculus; experiment: Antiangiogenic activity in BALB/c mouse assessed as reduction in neovascularization by measuring reduction in hemoglobin concentration at 2 uM by matrigel plug assay; type: functional, organism-based
[6] = system: HUVEC; experiment: Downregulation of p-Akt expression in HUVEC cells at 250 nM measured after 6 hrs by Western blot analysis; type: functional, cell-based; details: Homo sapiens
[7] = system: HUVEC; experiment: Downregulation of p-Src expression in HUVEC cells at 250 nM measured after 6 hrs by Western blot analysis; type: functional, cell-based; details: Homo sapiens
[8] = system: HUVEC; experiment: Antiangiogenic activity against HUVEC cells assessed as inhibition of cell migration measured after 12 hrs by scratch wound closure assay relative to control; type: functional, Homo sapiens
[9] = system: HUVEC; experiment: Inhibition of tube formation in HUVEC measured up to 12 hrs by calcein-AM staining based fluorescence microscopic analysis; type: functional, cell-based; details: Homo sapiens, dose 250-10000 nM, time hrs <=12
[10] = system: HUVEC; experiment: Induction of F-actin depolymerization in HUVEC assessed as loss of endothelial cell morphology at 250 nM incubated for 6 hrs by phalloidin staining based confocal microscopic analysis; details: Homo sapiens
[11] = species on record: Mus musculus; experiment: Antiangiogenic activity in BALB/c mouse assessed as assessed as reduction in CD31-positive microvessel density in ear tissue at 250 nM measured after 6 days by fluorescence microscopic analysis; type: functional, organism-based; details: time 6.0 day
[12] = Intrinsic clearance in rat liver microsomes; type: ADME, Microsome
[13] = system: HUVEC; experiment: Antiangiogenic activity against HUVEC cells assessed as inhibition of cell migration measured after 24 hrs by scratch wound closure assay; type: functional, cell-based; details: Homo sapiens
[14] = system: HUVEC; experiment: Induction of F-actin depolymerization in HUVEC assessed as loss of F-actin continuity at 250 nM incubated for 6 hrs by phalloidin staining based confocal microscopic analysis; type: tissue-based; details: Homo sapiens
[15] = molecular target: T1, Tubulin (Homo sapiens) (UniProt P68371+Q9H4B7+P0DPH7+P68366+Q13509+Q71U36+P04350+Q3ZCM7+P07437+P68363+Q9BQE3+Q6PEY2+Q13885+Q9BVA1+Q9BUF5); experiment: Induction of microtubule depolymerization in HUVEC assessed as assessed as microtubule network abnormalities at 250 nM incubated for 6 hrs by […] based confocal microscopic analysis; type: tissue-based
[16] = Elimination rate constant in Sprague-Dawley rat at 25 mg/kg, IM measured up to 48 hrs; type: ADME, organism-based; details: in vivo
[17] = molecular target: T1, Tubulin (Homo sapiens); experiment: Induction of microtubule depolymerization in HUVEC assessed as assessed as loss of endothelial cell morphology at 250 nM incubated for 6 hrs by […] based confocal microscopic analysis
[18] = system: HUVEC; experiment: Vascular disruptive effect in HUVEC cells assessed as reduction in tube formation at 250 nM measured after 3 to 24 hrs by calcein-AM staining based fluorescence microscopic analysis; type: functional, cell-based; details: Homo sapiens, time 3-24 hrs
[19] = system: HUVEC; experiment: Induction of F-actin depolymerization in HUVEC assessed as plasma membrane blebbing at 250 nM incubated for 6 hrs by phalloidin staining based confocal microscopic analysis; type: cell membranes; details: Homo sapiens
[20] = system: HUVEC; experiment: Cytotoxicity against HUVEC assessed as reduction in cell proliferation at 250 nM measured after 24 hrs by MTT assay; type: cell-based; details: human, 0.25 µM
[21] = molecular target: T1, Tubulin (Homo sapiens); experiment: Induction of microtubule depolymerization in HUVEC assessed as assessed as plasma membrane blebbing at 250 nM incubated for 6 hrs by […] based confocal microscopic analysis; type: cell membranes
[22] = Stability in culture media assessed as compound remaining at 250 to 500 nM measured up to 24 hrs; type: physicochemical; details: dose 250-500 nM, read-out: Stability
[23] = Metabolic stability in rat liver microsomes assessed as dissociation rate constant; type: ADME, Microsome
[24] = system: MDA-MB-468; experiment: Antitumor activity against human MDA-MB-468 cells xenografted in CD-1 mouse assessed as reduction in tumor size at 30 mg/kg, iv administered once daily for 21 days; type: functional, organism-based; details: time 21.0 day
[25] = Stability in rat plasma assessed as compound remaining measured up to 2 hrs; type: ADME, cell-free; details: read-out: Stability
[26] = Tmax in Sprague-Dawley rat at 25 mg/kg, IM measured up to 48 hrs; type: ADME, organism-based; details: in vivo
[27] = Stability in simulated intestinal fluid at pH 6.8 assessed as parent compound remaining after 2 hrs; type: ADME; details: read-out: Stability
[28] = Metabolic stability in rat liver microsomes assessed as half life; type: ADME, Microsome
[29] = Clearance in Sprague-Dawley rat at 25 mg/kg, IM measured up to 48 hrs; type: ADME, organism-based; details: in vivo
[30] = Cmax in Sprague-Dawley rat at 25 mg/kg, IM measured up to 48 hrs; type: ADME, organism-based; set-up: route intramuscular, dose 25 mg/kg, time <=48; details: in vivo
[31] = system: HUVEC; experiment: Inhibition of tube formation in HUVEC at 50 to 100 nM measured up to 12 hrs by calcein-AM staining based fluorescence microscopic analysis; type: functional, cell-based; details: Homo sapiens, dose 50-100 nM, time hrs <=12
[32] = species on record: Mus musculus; experiment: Antiangiogenic activity in BALB/c mouse assessed as reduction in neovascularization by measuring reduction in hemoglobin concentration at 250 nM by matrigel plug assay; type: functional, organism-based
[33] = molecular target: Vascular endothelial growth factor receptor 2 (Homo sapiens) (UniProt P35968); experiment: Inhibition of VEGFR2 phosphorylation in VEGF-induced HUVEC cells pretreated at 0.5 to 20 uM by Western blot analysis; type: cell-based; details: dose 0.5-20 µM
Chain of Vascular endothelial growth factor receptor 2 (Homo sapiens) (P35968 whole entry): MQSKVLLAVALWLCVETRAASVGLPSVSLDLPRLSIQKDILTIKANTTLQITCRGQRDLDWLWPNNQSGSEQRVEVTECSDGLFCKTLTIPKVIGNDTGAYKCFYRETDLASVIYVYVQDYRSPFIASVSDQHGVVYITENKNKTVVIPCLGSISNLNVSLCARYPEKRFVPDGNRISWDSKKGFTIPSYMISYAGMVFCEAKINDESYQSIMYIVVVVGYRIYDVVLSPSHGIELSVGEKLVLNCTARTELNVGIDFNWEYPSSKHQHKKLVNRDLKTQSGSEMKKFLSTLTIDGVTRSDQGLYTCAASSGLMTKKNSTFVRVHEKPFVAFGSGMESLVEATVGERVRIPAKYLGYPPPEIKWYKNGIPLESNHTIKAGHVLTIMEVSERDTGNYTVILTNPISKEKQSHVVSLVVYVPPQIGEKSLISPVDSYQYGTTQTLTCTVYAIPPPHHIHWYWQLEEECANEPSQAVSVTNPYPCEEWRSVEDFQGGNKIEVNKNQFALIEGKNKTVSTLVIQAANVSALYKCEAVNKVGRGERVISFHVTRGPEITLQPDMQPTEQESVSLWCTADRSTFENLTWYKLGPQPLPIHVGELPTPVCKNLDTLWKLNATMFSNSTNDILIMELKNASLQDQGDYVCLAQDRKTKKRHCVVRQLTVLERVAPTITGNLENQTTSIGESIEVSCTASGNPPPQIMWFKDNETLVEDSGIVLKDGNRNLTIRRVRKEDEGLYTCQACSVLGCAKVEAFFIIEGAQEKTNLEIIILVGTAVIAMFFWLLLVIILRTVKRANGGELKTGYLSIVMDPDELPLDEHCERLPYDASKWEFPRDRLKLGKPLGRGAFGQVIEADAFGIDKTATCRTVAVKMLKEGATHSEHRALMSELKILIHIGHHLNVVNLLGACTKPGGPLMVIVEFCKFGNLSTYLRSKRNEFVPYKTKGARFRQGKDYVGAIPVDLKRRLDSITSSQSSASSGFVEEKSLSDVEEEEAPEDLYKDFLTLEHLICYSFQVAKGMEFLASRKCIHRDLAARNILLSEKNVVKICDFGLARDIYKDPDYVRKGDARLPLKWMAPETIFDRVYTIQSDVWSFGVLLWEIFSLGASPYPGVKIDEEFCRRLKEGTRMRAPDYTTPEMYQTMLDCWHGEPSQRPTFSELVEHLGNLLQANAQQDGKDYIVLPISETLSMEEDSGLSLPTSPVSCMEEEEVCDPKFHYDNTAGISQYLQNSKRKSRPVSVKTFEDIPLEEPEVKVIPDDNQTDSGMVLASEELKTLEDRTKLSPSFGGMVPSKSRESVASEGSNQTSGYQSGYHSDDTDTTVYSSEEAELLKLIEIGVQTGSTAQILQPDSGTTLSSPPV

[34] = system: HUVEC; experiment: Effect on cell cycle distribution in HUVEC cells assessed as accumulation of cells in G2 phase at 250 nM measured after 24 hrs by propidium iodide staining based flow cytometry analysis (Rvb= 1.67%); type: functional, Homo sapiens
[35] = Half life in Sprague-Dawley rat at 25 mg/kg, IM measured up to 48 hrs; type: ADME, organism-based; details: in vivo
[36] = system: HUVEC; experiment: Downregulation of ICAM-1 expression in HUVEC cells at 250 nM measured after 6 hrs by Western blot analysis; type: functional, cell-based; details: Homo sapiens
[37] = Apparent volume of distribution in Sprague-Dawley rat at 25 mg/kg, IM measured up to 48 hrs; type: ADME, organism-based; details: in vivo
[38] = Stability in simulated gastric fluid at pH 1.2 assessed as parent compound remaining after 2 hrs; type: ADME; details: read-out: Stability
[39] = system: HUVEC; experiment: Antiangiogenic activity against VEGF-stimulated HUVEC cells assessed as reduction in endothelial sprouting tubules incubated for 3 days by Cytodex-3 beads based inverted microscopic analysis; type: functional, cell-based; details: Homo sapiens, dose 250-1000 nM, time 3.0 day

Compound: CC(=O)N(c1ccc(O)cc1)c1sc2ccccc2c1C#N
Activity [1]: 36%
Activity [2]: 59%

Compound: COc1cccc(Nc2sc3ccccc3c2C#N)c1
Activity [1]: 81%

Compound: N#Cc1c(Nc2ccccc2)sc2ccccc12
Activity [1]: 81%

Compound: N#Cc1c(Nc2cccc(O)c2)sc2ccccc12
Activity [1]: 0%
Activity [2]: 60%

Compound: N#Cc1c(Nc2ccc(C(F)(F)F)cc2)sc2ccccc12
Activity [1]: 24%
Activity [2]: 65%

Compound: N#Cc1c(Nc2ccccc2)sc2cc3ccccc3cc12
Activity [1]: 50%

Compound: N#Cc1c(Nc2ccccc2)sc2cc3c(cc12)OCO3
Activity [1]: 75%

Compound: N#Cc1c(Nc2ccccc2O)sc2ccccc12
Activity [1]: 19%
Activity [2]: 68%

Compound: COc1cc2sc(Nc3cccc(O)c3)c(C#N)c2cc1OC
Activity [1]: 11%
Activity [2]: 67%

Compound: COc1ccc(Nc2sc3c(OC)cc(OC)cc3c2C#N)cc1
Activity [1]: 63%

Compound: N#Cc1c(Nc2ccc([N+](=O)[O-])cc2)sc2ccccc12
Activity [1]: 8%
Activity [2]: 37%

Compound: COc1ccc(Nc2sc3ccccc3c2C#N)cc1
Activity [1]: 57%

Compound: COc1c2c(cc3c(C#N)c(Nc4ccccc4)sc13)OCO2
Activity [1]: 81%

Compound: N#Cc1c(Nc2ccc(N)cc2)sc2ccccc12
Activity [1]: 1%
Activity [2]: 51%

Compound: N#Cc1c(Nc2ccc(F)cc2)sc2ccccc12
Activity [1]: 25%
Activity [2]: 58%

Compound: COc1cc2sc(Nc3ccc(O)cc3)c(C#N)c2cc1OC
Activity [1]: 0%
Activity [2]: 73%

Compound: CCN(CC)CCNC(=O)c1c(C)[nH]c(/C=C2\C(=O)Nc3ccc(F)cc32)c1C [SUNITINIB]
Activity [3]: Active
Activity [4]: 43%
Activity [5]: Active

Compound: N#Cc1c(Nc2ccc(Cl)cc2)sc2ccccc12
Activity [1]: 45%
Activity [2]: 45%

Compound: COc1cc2sc(Nc3ccccc3)c(C#N)c2cc1OC
Activity [1]: 77%

CLH [12]: 0.74 L/h
Activity [15]: Active
k el at 48 h [16]: 3.47e-05 s⁻¹
Activity [17]: Active
Activity [19]: Active
Activity [21]: Active
remaining at 24 h, up to 0.5 µM [22]: 78.3%
Kdiss [23]: 0.000103 s⁻¹
remaining at 2 h [25]: 89.1%
Tmax [26]: 0.5 h
remaining at 2 h [27]: 89%
half-life [28]: 1.87 h
CL/F [29]: 205 mL/min/kg
Cmax [30]: 442 ng/mL
inhibition [33]: Active
half-life [35]: 6 h
Vz [37]: 107.16 L/kg
remaining at 2 h [38]: 90.4%
Compound: N#Cc1c(Nc2ccc(O)cc2)sc2ccccc12
Activity [6]: Active
Activity [7]: Active
inhibition (INH) [8]: 80%
inhibition [9]: Dose-Dependent Effect
Activity [10]: Active
Activity [11]: Active
Activity [1]: 25%
inhibition [13]: inactive
Activity [14]: Active
Activity [18]: Active
Activity [20]: Non-Toxic
Activity [24]: Active
inhibition [31]: inactive
Activity [2]: 2%
Activity [32]: Active
Activity [34]: 1.58%
Activity [36]: inactive
Activity [39]: Dose-Dependent Effect
